Measurements: US20230159510A1, “NOVEL PRMT5 INHIBITORS” (AMGEN INC., priority 2020, published 2023)

Legend:
HCT116 MTAP null cells = experiment: HCT116 proliferation assay, MTAP null cells (CellTiter-Glo, 6 days); format: cell-based; conditions: HCT116-MTAP null, 144 h, read-out: Protif_ HCT116-MTAP null IC50
Outline: (§1)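 Cells were plated in RPMI 1640 with 10% fetal bovine serum and left overnight at 37° C and 5% CO2. Compound was then added as an 8- or 9-point 1:3 dilution series from a top concentration of 1 or 10 µM, alongside a DMSO-only control. Viability was read by luminescence.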

PRMT5/MEP50 = PRMT5/MEP50 (Homo sapiens, UniProt O14744); experiment: MTase-Glo methyl transferase assay, Method B (FL-Histone H2A, 1 µM MTA, 1 h pre-incubation); format: biochemical; design: purchased Reaction Biology Corp RD-11-292; conditions: read-out: PRMT5 MTase Glo Ki (nM, Meth. B)
Protocol: Method B: The PRMT5 inhibitory activity of test compounds was determined using the MTase-Glo™ assay (Promega), which monitors the product (S-adenosyl homocysteine or SAH) of methyltransferase reactions. The PRMT5 MTase-Glo assay was conducted in a 384-well white ProxiPlate (PerkinElmer) in a total volume of 16 µL. The PRMT5 enzymatic reaction (in 8 µL) contained 4 nM PRMT5/MEP50 (Reaction Biology Corp, catalog no.: RD-11-292), 5 µM S-adenosyl methionine (SAM, Promega), 2.5 µM FL-Histone H2A (BPS Bioscience, catalog no.: 52021), 1 µM 5′-methylthioadenosine (MTA, Sigma) and ½ log serially diluted compounds in a reaction buffer of 50 mM Tris (pH 8.0), 50 mM NaCl, 0.01% Tween 20, 0.01% BSA, and 1 mM TCEP. Test compounds were pre-incubated with PRMT5/MEP50, SAM, and MTA for 1 hour before addition of FL-Histone H2A to initiate the PRMT5 reaction. The reaction was allowed to proceed for 20 hours at room temperature and was then terminated by addition of 1 µL of 9X MTase-Glo™ Reagent (Promega). After a 30-minute incubation at room temperature, 8 µL of MTase-Glo™ Detection Solution (Promega) was added and the plate was incubated at room temperature for an additional 30 minutes. The light signal corresponding to the amount of SAH produced by the PRMT5 reaction was subsequently measured using an Envision multimode reader (PerkinElmer). IC50 and KI values were obtained by analyzing dose-response curves using GraphPad Prism®.

HCT116 WT cells = experiment: HCT116 proliferation assay, WT cells (CellTiter-Glo, 6 days); format: cell-based; conditions: Homo sapiens, HCT-116, 144 h, read-out: Prolif_HCT116-WT IC50
Outline: as §1

Chain of PRMT5/MEP50 (O14744 2-637 limits assumed): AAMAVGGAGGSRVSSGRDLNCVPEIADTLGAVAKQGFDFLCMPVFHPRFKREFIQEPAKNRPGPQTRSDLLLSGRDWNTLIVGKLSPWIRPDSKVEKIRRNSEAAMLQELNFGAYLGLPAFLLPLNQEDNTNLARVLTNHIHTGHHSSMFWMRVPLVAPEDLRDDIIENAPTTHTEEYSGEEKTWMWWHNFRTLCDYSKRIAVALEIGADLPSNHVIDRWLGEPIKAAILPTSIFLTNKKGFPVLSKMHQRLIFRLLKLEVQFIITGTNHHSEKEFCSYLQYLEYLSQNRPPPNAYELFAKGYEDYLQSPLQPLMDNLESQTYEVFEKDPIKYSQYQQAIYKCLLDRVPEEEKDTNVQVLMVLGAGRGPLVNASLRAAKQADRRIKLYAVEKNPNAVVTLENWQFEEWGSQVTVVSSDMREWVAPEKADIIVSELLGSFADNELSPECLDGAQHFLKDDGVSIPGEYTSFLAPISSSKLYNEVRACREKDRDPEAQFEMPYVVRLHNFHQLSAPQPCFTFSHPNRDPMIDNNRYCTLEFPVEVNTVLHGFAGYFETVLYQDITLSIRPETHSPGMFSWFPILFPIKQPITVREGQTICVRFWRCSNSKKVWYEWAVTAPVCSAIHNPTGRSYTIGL
Chain of PRMT5/MEP50 (Q9BQA1 2-342 partner limits assumed): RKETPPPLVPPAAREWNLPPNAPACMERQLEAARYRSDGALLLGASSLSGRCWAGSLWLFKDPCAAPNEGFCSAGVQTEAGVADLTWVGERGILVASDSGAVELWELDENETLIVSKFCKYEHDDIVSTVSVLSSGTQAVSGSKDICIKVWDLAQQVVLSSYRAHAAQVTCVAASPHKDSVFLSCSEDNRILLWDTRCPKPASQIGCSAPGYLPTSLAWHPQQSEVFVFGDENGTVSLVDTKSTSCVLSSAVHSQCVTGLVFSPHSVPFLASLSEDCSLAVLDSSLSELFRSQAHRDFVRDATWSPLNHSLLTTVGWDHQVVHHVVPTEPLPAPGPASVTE

Compound	IC50 (HCT116 MTAP null cells) [nM]	Ki (PRMT5/MEP50) [nM]	IC50 (HCT116 WT cells) [nM]
Cc1cc2cc(C(=O)N(Cc3ccc(C(F)(F)F)cn3)C3CC3C3CC3)ccc2nc1N (stereo not shown) [Example 705, 2-amino-N-(2-cyclopropylcyclopropyl)-3-methyl-N-[[5-(trifluoromethyl)-2-pyridyl]methyl] quinoline-6-carboxamide]	760	9.63	> 1000
Cc1cc2cc(C(=O)N(Cc3ccc(C(F)(F)F)cn3)CC(C)C3CC3)ccc2nc1N (stereo not shown) [Example 575, 2-amino-N-(2-cyclopropylpropyl)-3-methyl-N-((5-(trifluoromethyl)pyridin-2-yl)methyl)quinoline-6-carboxamide]	78	2.89	> 1000
Cc1cc2cc(C(=O)N(Cc3ccc4ccoc4c3)Cc3ccc(C(F)(F)F)cn3)ccc2nc1N [Example 622, 2-amino-N-(benzofuran-6-ylmethyl)-3-methyl-N-((5-(trifluoromethyl)pyridin-2-yl)methyl)quinoline-6-carboxamide]	130	1.98	> 1000
Cc1cc2cc(C(=O)N(Cc3ccc(C(F)(F)F)cn3)C[C@H]3CC[C@H](O)CC3)ccc2nc1N [Example 676, 2-amino-N-[(4-hydroxycyclohexyl)methyl]-3-methyl-N-[[5-(trifluoromethyl)-2-pyridyl]methyl] quinoline-6-carboxamide]	255	3.88	> 1000
Cc1cc2cc(C(=O)N(Cc3ccc(C(F)(F)F)cn3)[C@@H]3c4ccccc4C[C@H]3O)ccc2nc1N [Example 609, 2-amino-N-((1R,2R)-2-hydroxy-2,3-dihydro-1H-inden-1-yl)-3-methyl-N-((5-(trifluoromethyl)pyridin-2-yl)methyl)quinoline-6-carboxamide]	540	26.8	> 1000
Cc1cc2cc(C(=O)N(Cc3ccc(C(F)(F)F)cn3)C3CCCc4c[nH]nc43)ccc2nc1N (stereo not shown) [Example 631, 2-amino-3-methyl-N-(4,5,6,7-tetrahydro-2H-indazol-7-yl)-N-[[5-(trifluoromethyl)-2-pyridyl]methyl] quinoline-6-carboxamide]	28	7.14	–
Cc1cc2cc(C(=O)N(Cc3ccc(C(F)(F)F)cn3)C3CCc4cn[nH]c4C3)ccc2nc1N (stereo not shown) [Example 671, 2-amino-3-methyl-N-(4,5,6,7-tetrahydro-1 H-indazol-6-yl)-N-[[5-(trifluoromethyl)-2-pyridyl]methyl] quinoline-6-carboxamide]	180	6.82	–
Cc1cc2cc(C(=O)N(Cc3ccc(-c4cc[nH]n4)cc3)Cc3ccc(C(F)(F)F)cn3)ccc2nc1N [Example 647, 2-amino-3-methyl-N-[[4-(IH-pyrazol-3-yl)phenyl]methyl]-N-[[5-(trifluoromethyl)-2-pyridyl]methyl] quinoline-6-carboxamide]	320	4.11	–
Cc1cc2cc(C(=O)N(Cc3ccc(O)c(F)c3)Cc3ccc(C(F)(F)F)cn3)ccc2nc1N [Example 662, 2-amino-N-[(3-fluoro-4-hydroxyphenyl)methyl] -3-methyl-N-[ [5-(trifluoromethyl)-2-pyridyl]methyl] quinoline-6-carboxamide]	180	3.58	–
Cc1cc2cc(C(=O)N(Cc3ccc(C(F)(F)F)cn3)C3Cc4ccccc4C3O)ccc2nc1N (stereo not shown) [Example 674, 2-amino-N-(1-hydroxyindan-2-yl)-3-methyl-N-[[5-(trifluoromethyl)-2-pyridyl]methyl] quinoline-6-carboxamide]	510	15.3	–
Cc1cc2cc(C(=O)N(Cc3ccc(C(F)(F)F)cn3)C(C)C(C)O)ccc2nc1N (stereo not shown) [Example 641, 2-amino-N-(2-hydroxy-1-methylpropyl)-3-methyl-N-[[5-(trifluoromethyl)-2-pyridyl]methyl] quinoline-6-carboxamide]	920	13.1	–
Cc1cc2cc(C(=O)N(Cc3cc(Cl)ccn3)CC(C)C)ccc2nc1N [Example 639, 2-amino-N-[(4-chloro-2-pyridyl)methyl]-N-isobutyl-3-methylquinoline-6-carboxamide]	580	12.2	–
Cc1cc2cc(C(=O)N(Cc3ccc(C(F)(F)F)cn3)C(C)C3CCCO3)ccc2nc1N (stereo not shown) [Example 632, 2-amino-3-methyl-N-(1-tetrahydrofuran-2-ylethyl)-N-[[5-(trifluoromethyl)-2-pyridyl]methyl] quinoline-6-carboxamide]	340	5.3	–
Cc1cc2cc(C(=O)N(Cc3cccc(-n4ccnc4)c3)Cc3ccc(C(F)(F)F)cn3)ccc2nc1N [Example 648, 2-amino-N-[(3-imidazol-1-ylphenyl)methyl]-3-methyl-N-[[5-(trifluoromethyl)-2-pyridyl]methyl] quinoline-6-carboxamide]	180	1.68	–
Cc1cc2cc(C(=O)N(Cc3ccc4c(c3)CNC4=O)Cc3ccc(C(F)(F)F)cn3)ccc2nc1N [Example 636, 2-amino-3-methyl-N-[(1-oxoisoindolin-5-yl)methyl]-N-[[5-(trifluoromethyl)-2-pyridyl]methyl] quinoline-6-carboxamide]	890	2.3	–
Cc1cc2cc(C(=O)N(Cc3ccc(N4CCCC4)cc3)Cc3ccc(C(F)(F)F)cn3)ccc2nc1N [Example 646, 2-amino-3-methyl-N-[(4-pyrrolidin-1-ylphenyl)methyl]-N-[[5-(trifluoromethyl)-2-pyridyl]methyl] quinoline-6-carboxamide]	850	6.83	–
Cc1cc2cc(C(=O)N(Cc3ccccc3O)Cc3ccnc4[nH]ccc34)ccc2nc1N [Example 690, 2-amino-N-[(2-hydroxyphenyl)methyl]-3-methyl-N-(1H-pyrrolo[2,3-b]pyridin-4-ylmethyl)quinoline-6-carboxamide]	94	1.68	–
Cc1cc2cc(C(=O)N(Cc3ccnc4[nH]ccc34)Cc3ccnn3C)ccc2nc1N [Example 687, 2-amino-3-methyl-N-[(2-methylpyrazol-3-yl)methy1] -N-(1 H-pyrrolo [2,3-b]pyridin-4-ylmethyl)quinoline-6-carboxamide]	110	1.56	–
Cc1cc2cc(C(=O)N(Cc3ccc(O)cc3)Cc3ccnc4[nH]ccc34)ccc2nc1N [Example 688, 2-amino-N-[(4-hydroxyphenyl)methyl]-3-methyl-N-(1H-pyrrolo[2,3-b]pyridin-4-ylmethyl)quinoline-6-carboxamide]	240	1.41	–
Cc1cc2cc(C(=O)N(Cc3ccc(C(F)(F)F)cn3)Cc3ccc[nH]c3=O)ccc2nc1N [Example 627, 2-amino-3-methyl-N-((2-oxo-1,2-dihydropyridin-3-yl)methyl)-N-((5-(trifluoromethyl)pyridin-2-yl)methyl)quinoline-6-carboxamide]	360	2.8	–
Cc1cc2cc(C(=O)N(Cc3ccc(C(F)(F)F)cn3)C3CCCc4ncccc43)ccc2nc1N (stereo not shown) [Example 667, 2-amino-3-methyl-N-(5,6,7,8-tetrahydroquinolin-5-yl)-N-[[5-(trifluoromethyl)-2-pyridyl]methyl] quinoline-6-carboxamide]	24	3.9	–
Cc1cc2cc(C(=O)N(Cc3ccc(C(F)(F)F)cn3)C(C)CC(C)C)ccc2nc1N (stereo not shown) [Example 634, 2-amino-N-(1,3-dimethylbutyl)-3-methyl-N-[[5-(trifluoromethyl)-2-pyridyl]methyl] quinoline-6-carboxamide]	930	6.84	–
CCn1ncc2c1CCCC2N(Cc1ccc(C(F)(F)F)cn1)C(=O)c1ccc2nc(N)c(C)cc2c1 (stereo not shown) [Example 673, 2-amino-N-(1-ethy1-4,5,6,7-tetrahydroindazol-4-yl)-3-methyl-N-[[5-(trifluoromethyl)-2-pyridyl]methyl] quinoline-6-carboxamide]	95	5.32	–
CCC(C1CCOCC1)N(Cc1ccc(C(F)(F)F)cn1)C(=O)c1ccc2nc(N)c(C)cc2c1 (stereo not shown) [Example 681, 2-amino-3-methyl-N-(1-tetrahydropyran-4-ylpropyl)-N-[[5-(trifluoromethyl)-2-pyridyl]methyl] quinoline-6-carboxamide]	240	4.87	–
Cc1cc2cc(C(=O)N(Cc3ccc(C(F)(F)F)cn3)Cc3ccccc3-n3ccnc3)ccc2nc1N [Example 653, 2-amino-N-[(2-imidazol-1-ylphenyl)methyl]-3-methyl-N-[[5-(trifluoromethyl)-2-pyridyl]methyl] quinoline-6-carboxamide]	280	2.79	–
